Measurements reported in patent US5026832A, “9-dihydro-9-O-alkyldesmycosin derivatives” (Toyo Jozo Co., Ltd., priority 1988, dated 1991).
Values after ≈ are worked out from the molar mass of the structure shown. Where two headings read alike, the source gives them in different places.

What was measured:
[1] = tested on: Staphylococcus pyogenes S-23; assay: Infectious disease curing effect by oral administration in infected mice; assay type: in vivo, ICR male mice; settings: Staphylococcus aureus
Description: A pre-incubated test microorganism, Staphylococcus pyogenes S-23, was suspended in a 5% mucin solution and inoculated into the ICR male mice (8 mice per group) abdomen in an amount of 2×10^2. After 1 hour, Compounds (I) of the present invention dissolved or suspended in a phosphate buffer were orally administered to the mice. The mice were inspected for 5 days to determine ED50 (mg/kg) by the Van der Waerden method.

[2] = tested on: Staphylococcus aureus MS 353; assay: Antimicrobial activity (minimum inhibitory concentration); assay type: cell-based; settings: MS353; Staphylococcus aureus MS 353, about 10^6 /ml
Description: (§1) Minimum inhibitory concentrations (MIC, μg/ml) of various compounds of formula (I) against various microorganisms (about 10^6 /ml) were measured.

[3] = tested on: Staphylococcus pyogenes N.Y.5; assay: as above; assay type: cell-based; settings: Staphylococcus pyogenes N.Y.5, about 10^6 /ml
Description: as §1

[4] = tested on: Staphylococcus aureus MS 353 C36; assay: as above; assay type: cell-based; settings: MS353C36; Staphylococcus aureus MS 353 C36, about 10^6 /ml
Description: as §1

[5] = tested on: Staphylococcus aureus Smith; assay: as above; assay type: cell-based; settings: about 10^6 /ml
Description: as §1

[6] = tested on: Staphylococcus pyogenes S-23; assay: as above; assay type: cell-based; settings: Staphylococcus aureus, S23; Staphylococcus pyogenes S-23, about 10^6 /ml
Description: as §1

[7] = tested on: Staphylococcus aureus FDA 209P JC-1; assay: as above; assay type: cell-based; settings: FDA209P; Staphylococcus aureus FDA 209P JC-1, about 10^6 /ml
Description: as §1

[8] = tested on: Staphylococcus epidermidis sp-al-1; assay: as above; assay type: cell-based; settings: SPAL1; Staphylococcus epidermidis sp-al-1, about 10^6 /ml
Description: as §1

[9] = tested on: Staphylococcus pyogenes 1022; assay: as above; assay type: cell-based; settings: Staphylococcus pyogenes 1022, about 10^6 /ml
Description: as §1

[10] = S23, 120 h, oral, 1 hour after abdominal inoculation of Staphylococcus pyogenes S-23, inspected for 5 days, Van der Waerden method, read-out: ED50

Row | Structure (SMILES) | ED50 [1, 10] [mg/kg] | MIC [2] [µg/mL] | MIC [3] [µg/mL] | MIC [4] [µg/mL] | MIC [5] [µg/mL] | MIC [6] [µg/mL] | MIC [7] [µg/mL] | MIC [8] [µg/mL] | MIC [9] [µg/mL] | ED50 ([1]; S23, po, 120 h) [mg/kg]
1 | CCC1OC(=O)CC(O)C(C)C(OC2OC(C)CC(N(C)C)C2O)C(CC=O)CC(C)C(=O)C=CC(C)=CC1COC1OC(C)C(O)C(OC)C1OC (stereo not shown) [4'-Deoxydesmycosin, reference compound] | > 200 |  |  |  |  |  |  |  |  | 
2 | CCC1OC(=O)CC(O)C(C)C(OC2OC(C)C(O)C(N(C)C)C2O)C(CC=O)CC(C)C(OC)C=CC(C)=CC1COC1OC(C)C(O)C(OC)C1OC (stereo not shown) [Compound 1, 9-dihydro-9-O-methyldesmycosin] | 100 to 200 | 0.2 (≈ 0.254 µM) | ≤ 0.05 | 0.2 (≈ 0.254 µM) | 0.39 (≈ 0.495 µM) | ≤ 0.05 | 0.1 (≈ 0.127 µM) | ≤ 0.05 |  | 
3 | CCOC1C=CC(C)=CC(COC2OC(C)C(O)C(OC)C2OC)C(CC)OC(=O)CC(O)C(C)C(OC2OC(C)C(O)C(N(C)C)C2O)C(CC=O)CC1C (stereo not shown) [Compound 2, 9-dihydro-9-O-ethyldesmycosin] |  | 0.2 (≈ 0.249 µM) | ≤ 0.05 | 0.1 (≈ 0.125 µM) | 0.2 (≈ 0.249 µM) | ≤ 0.05 | 0.1 (≈ 0.125 µM) | 0.1 (≈ 0.125 µM) | > 100 | 
4 | CCCOC1C=CC(C)=CC(COC2OC(C)C(O)C(OC)C2OC)C(CC)OC(=O)CC(O)C(C)C(OC2OC(C)C(O)C(N(C)C)C2O)C(CC=O)CC1C (stereo not shown) [Compound 3, 9-dihydro-9-O-propyldesmycosin] |  | 0.2 (≈ 0.245 µM) | ≤ 0.05 | 0.2 (≈ 0.245 µM) | 0.39 (≈ 0.478 µM) | 0.1 (≈ 0.123 µM) | 0.1 (≈ 0.123 µM) | 0.2 (≈ 0.245 µM) | > 100 | 
5 | CCCCOC1C=CC(C)=CC(COC2OC(C)C(O)C(OC)C2OC)C(CC)OC(=O)CC(O)C(C)C(OC2OC(C)C(O)C(N(C)C)C2O)C(CC=O)CC1C (stereo not shown) [Compound 4, 9-dihydro-9-O-butyldesmycosin] |  | 0.39 (≈ 0.47 µM) | 0.1 (≈ 0.12 µM) | 0.39 (≈ 0.47 µM) | 0.78 (≈ 0.94 µM) | 0.2 (≈ 0.241 µM) | 0.39 (≈ 0.47 µM) | 0.39 (≈ 0.47 µM) | > 100 | 
6 | CCC(=O)OC1CC(=O)OC(CC)C(COC2OC(C)C(O)C(OC)C2OC)C=C(C)C=CC(OC)C(C)CC(CC=O)C(OC2OC(C)C(O)C(N(C)C)C2O)C1C (stereo not shown) [Compound 5, 9-dihydro-9-O-methyl-3-O-propionyldesmycosin] | 84 | 0.2 (≈ 0.237 µM) | 0.05 (≈ 0.0592 µM) | 0.2 (≈ 0.237 µM) | 0.39 (≈ 0.462 µM) | 0.1 (≈ 0.118 µM) | 0.1 (≈ 0.118 µM) | 0.2 (≈ 0.237 µM) | 50 (≈ 59.2 µM) | 
7 | CCC1OC(=O)CC(O)C(C)C(OC2OC(C)CC(N(C)C)C2O)C(CC=O)CC(C)C(OC)C=CC(C)=CC1COC1OC(C)C(O)C(OC)C1OC (stereo not shown) [Compound 6, 9-dihydro-9-O-methyl-4'-deoxydesmycosin] | 64.8 | 0.2 (≈ 0.259 µM) | ≤ 0.05 | 0.2 (≈ 0.259 µM) | 0.39 (≈ 0.505 µM) | ≤ 0.05 | 0.1 (≈ 0.13 µM) | 0.1 (≈ 0.13 µM) |  | 
8 | CCC1OC(=O)CC(O)C(C)C(OC2OC(C)CC(N(C)C)C2O)C(CC=O)CC(C)C(OC)C=CC(C)=CC1CN(C)C (stereo not shown) [Compound 7, 9-dihydro-9-O-methyl-23-demycinosyloxy-23-dimethylamino-4'-deoxydesmycosin] | 100 to 200 | 0.2 (≈ 0.32 µM) | 0.2 (≈ 0.32 µM) | 0.2 (≈ 0.32 µM) | 0.78 (≈ 1.25 µM) | 0.2 (≈ 0.32 µM) | 0.2 (≈ 0.32 µM) | 0.2 (≈ 0.32 µM) | > 100 | 
9 | CCOC1C=CC(C)=CC(COC2OC(C)C(O)C(OC)C2OC)C(CC)OC(=O)CC(OC(C)=O)C(C)C(OC2OC(C)C(O)C(N(C)C)C2O)C(CC=O)CC1C (stereo not shown) [Compound 8, 9-dihydro-9-O-ethyl-3-O-acetyldesmycosin] | 50 | 0.39 (≈ 0.462 µM) | 0.1 (≈ 0.118 µM) | 0.39 (≈ 0.462 µM) | 0.78 (≈ 0.924 µM) | 0.1 (≈ 0.118 µM) | 0.2 (≈ 0.237 µM) | 0.39 (≈ 0.462 µM) | > 100 | 
10 | CCCOC1C=CC(C)=CC(COC2OC(C)C(O)C(OC)C2OC)C(CC)OC(=O)CC(OC(C)=O)C(C)C(OC2OC(C)C(O)C(N(C)C)C2O)C(CC=O)CC1C (stereo not shown) [Compound 9, 9-dihydro-9--O-propyl-3-O-acetyldesmycosin] |  | 0.39 (≈ 0.455 µM) | 0.2 (≈ 0.233 µM) | 0.78 (≈ 0.909 µM) | 0.78 (≈ 0.909 µM) | 0.2 (≈ 0.233 µM) | 0.39 (≈ 0.455 µM) | 0.78 (≈ 0.909 µM) | > 100 | 
11 | CCOC1C=CC(C)=CC(COC2OC(C)C(O)C(OC)C2OC)C(CC)OC(=O)CC(OC(=O)CC)C(C)C(OC2OC(C)C(O)C(N(C)C)C2O)C(CC=O)CC1C (stereo not shown) [Compound 10, 9-dihydro-9-O-ethyl-3-O-propionyldesmycosin] |  | 0.39 (≈ 0.455 µM) | 0.1 (≈ 0.117 µM) | 0.39 (≈ 0.455 µM) | 0.78 (≈ 0.909 µM) | 0.39 (≈ 0.455 µM) | 0.2 (≈ 0.233 µM) | 0.78 (≈ 0.909 µM) | > 100 | 
12 | CCCOC1C=CC(C)=CC(COC2OC(C)C(O)C(OC)C2OC)C(CC)OC(=O)CC(OC(=O)CC)C(C)C(OC2OC(C)C(O)C(N(C)C)C2O)C(CC=O)CC1C (stereo not shown) [Compound 11, 9-dihydro-9-O-propyl-3-O-propionyldesmycosin] |  | 0.2 (≈ 0.229 µM) | 0.1 (≈ 0.115 µM) | 0.39 (≈ 0.447 µM) | 0.78 (≈ 0.894 µM) | 0.2 (≈ 0.229 µM) | 0.2 (≈ 0.229 µM) | 0.39 (≈ 0.447 µM) | 100 (≈ 115 µM) | 
13 | CCC1OC(=O)CC(OC(C)=O)C(C)C(OC2OC(C)C(O)C(N(C)C)C2O)C(CC=O)CC(C)C(OC)C=CC(C)=CC1COC1OC(C)C(O)C(OC)C1OC (stereo not shown) [Compound 12, 9-dihydro-9-O-methyl-3-O-acetyldesmycosin] |  | 0.2 (≈ 0.241 µM) | 0.1 (≈ 0.12 µM) | 0.2 (≈ 0.241 µM) | 0.39 (≈ 0.47 µM) | 0.1 (≈ 0.12 µM) | 0.2 (≈ 0.241 µM) | 0.39 (≈ 0.47 µM) | > 100 | 
14 | CCC1OC(=O)CC(OC(C)=O)C(C)C(OC2OC(C)CC(N(C)C)C2O)C(CC=O)CC(C)C(OC)C=CC(C)=CC1COC1OC(C)C(O)C(OC)C1OC (stereo not shown) [Compound 13, 9-dihydro-9-O-methyl-3-O-acetyl-4'-deoxydesmycosin] |  | 0.2 (≈ 0.246 µM) | 0.1 (≈ 0.123 µM) | 0.2 (≈ 0.246 µM) | 0.39 (≈ 0.479 µM) | 0.1 (≈ 0.123 µM) | 0.2 (≈ 0.246 µM) | 0.39 (≈ 0.479 µM) | > 100 | 
15 | CCC1OC(=O)CC(O)C(C)C(OC2OC(C)C(O)C(N(C)C)C2O)C(CC=O)CC(C)C(OCC2CC2)C=CC(C)=CC1COC1OC(C)C(O)C(OC)C1OC (stereo not shown) [Compound 14, 9-dihydro-9-O-cyclopropylmethyldesmycosin] |  | 0.2 (≈ 0.242 µM) | 0.1 (≈ 0.121 µM) | 0.2 (≈ 0.242 µM) | 0.39 (≈ 0.471 µM) | ≤ 0.05 | 0.2 (≈ 0.242 µM) | 0.2 (≈ 0.242 µM) | > 100 | 
16 | CCC1OC(=O)CC(O)C(C)C(OC2OC(C)C(O)C(N(C)C)C2O)C(CC=O)CC(C)C(OCC2CCC2)C=CC(C)=CC1COC1OC(C)C(O)C(OC)C1OC (stereo not shown) [Compound 15, 9-dihydro-9-O-cyclobutylmethyldesmycosin] |  | 0.39 (≈ 0.463 µM) | ≤ 0.05 | 0.39 (≈ 0.463 µM) | 0.78 (≈ 0.926 µM) | 0.2 (≈ 0.238 µM) | 0.39 (≈ 0.463 µM) | 0.78 (≈ 0.926 µM) | 50 (≈ 59.4 µM) | 
17 | CCC1OC(=O)CC(O)C(C)C(OC2OC(C)C(O)C(N(C)C)C2O)C(CC=O)CC(C)C(OCC2CCCCC2)C=CC(C)=CC1COC1OC(C)C(O)C(OC)C1OC (stereo not shown) [Compound 16, 9-dihydro-9-O-cyclohexylmethyldesmycosin] |  | 0.39 (≈ 0.448 µM) | 0.39 (≈ 0.448 µM) | 0.78 (≈ 0.896 µM) | 1.56 (≈ 1.79 µM) | 0.39 (≈ 0.448 µM) | 0.78 (≈ 0.896 µM) | 1.56 (≈ 1.79 µM) | 50 (≈ 57.5 µM) | 
18 | CCC1OC(=O)CC(O)C(C)C(OC2OC(C)C(O)C(N(C)C)C2O)C(CC=O)CC(C)C(OCC(C)C)C=CC(C)=CC1COC1OC(C)C(O)C(OC)C1OC (stereo not shown) [Compound 17, 9-dihydro-9-O-isobutyldesmycosin] |  | 0.39 (≈ 0.47 µM) | 0.1 (≈ 0.12 µM) | 0.39 (≈ 0.47 µM) | 0.78 (≈ 0.94 µM) | 0.2 (≈ 0.241 µM) | 0.39 (≈ 0.47 µM) | 0.39 (≈ 0.47 µM) | > 100 | 
19 | CCC1OC(=O)CC(O)C(C)C(OC2OC(C)C(O)C(N(C)C)C2O)C(CC=O)CC(C)C(OCc2ccccc2)C=CC(C)=CC1COC1OC(C)C(O)C(OC)C1OC (stereo not shown) [Compound 18, 9-dihydro-9-O-benzyldesmycosin] |  | 0.2 (≈ 0.231 µM) | 0.1 (≈ 0.116 µM) | 0.2 (≈ 0.231 µM) | 0.39 (≈ 0.451 µM) | 0.1 (≈ 0.116 µM) | 0.2 (≈ 0.231 µM) | 0.39 (≈ 0.451 µM) | 100 (≈ 116 µM) | 
20 | CCC1OC(=O)CC(O)C(C)C(OC2OC(C)C(O)C(N(C)C)C2O)C(CC=O)CC(C)C(=O)C=CC(C)=CC1COC1OC(C)C(O)C(OC)C1OC (stereo not shown) [Desmycosin, 4'-demycarosyltylosin] |  | 0.2 (≈ 0.259 µM) | ≤ 0.05 | 0.2 (≈ 0.259 µM) | 0.39 (≈ 0.505 µM) | ≤ 0.05 | 0.2 (≈ 0.259 µM) | 0.2 (≈ 0.259 µM) | > 100 | 
21 | CC[C@H]1OC(=O)C[C@@H](O)[C@H](C)[C@@H](O[C@@H]2O[C@H](C)[C@@H](O[C@H]3C[C@@](C)(O)[C@@H](O)[C@H](C)O3)[C@H](N(C)C)[C@H]2O)[C@@H](CC=O)C[C@@H](C)C(=O)/C=C/C(C)=C/[C@@H]1CO[C@@H]1O[C@H](C)[C@@H](O)[C@@H](OC)[C@H]1OC [Tylosin, reference compound] |  |  |  |  |  |  |  |  |  | > 200
